Source: patent US5466675A, “Immunological activity of rhamnolipids” (priority 1992, dated 1995)

Legend:
acetylcholinesterase = assay: enzyme inhibition, acetylcholinesterase; assay type: biochemical
Procedure: (§1) Rhamnolipid (II) was tested in vitro against a wide array of enzymes.
(§2) The following enzymes were inhibited at the various rhamnolipid concentrations indicated:
(§3) All enzyme assays were done spectrophotometrically by computer linked automatic microplate reader (Labsystem Multiskan) and Diode Array spectrophotometer (Perkin Elmer).

HIV I, strain IIIB = assay: effect on viruses, HIV I strain IIIB; assay type: cell-based; conditions: Human immunodeficiency virus 1, IIIB; read-out: maximal protection
Procedure: (§4) Tests were performed according to D. A. Vanden Berghe et al., Inst. Pasteur 84,101 (1986). Rhamnolipid (II) was toxic for VERO cells in concentrations ≥200 ug/ml, and cytotoxic on MT4 cells in concentrations >169.40 ug/ml.

elastase = assay: enzyme inhibition, elastase; assay type: biochemical
Procedure: as §1, §3

[1] = test system: A431 human epidermal cells; conditions: in particular in the presence of PMA
[2] = test system: Dermatitis circumscripta unilocularis; assay: clinical treatment of dermatitis circumscripta unilocularis; assay type: in vivo, human; conditions: one patient
Procedure: (§5) 17 patients, 11 men and 6 women, were treated with rhamnolipid (II). Among these, 12 patients were suffering from Psoriasis, 2 from Neurodermitis, 1 from Lichen ruber planus, 1 from Serborhoic dermatitis and one from Dermatitis circumscripta unilocularis eczematoides.

mice C57B1/6 = conditions: mouse, in vivo
Procedure: Tests were performed on mice C57B1/6, Animal source: Bantin and Kingman. This was done following the procedures described elsewhere in Technical Report Series, National Toxicology Program, U.S. Department of Health and Human services.
Examinations were made in all tests on the following tissues from each mouse necropsied: bone (femur), bone marrow (femur)-slide only, brain, colon, duodenum, testes, heart, kidneys, liver, lungs (infuse with formalin), pancreas, spleen, muscle, adrenal nodes, uterus, gastric.

[3] = test system: sheep red blood cell (SRBC) hemagglutination; assay: immunosuppression (humoral): sheep red blood cell (SRBC) hemagglutination; assay type: in vivo, mouse (ICR, female)
Procedure: Groups of 6 mice were sensitized by the IV injection of 0.2 ml of a 2% SRBC suspension. On the 9th day following sensitization, blood samples were withdrawn from the orbital sinus and equal parts of complement inactivated serum from the group of 6 mice were pooled to yield a single 0.25 ml sample. Serial 2-fold dilutions were then carried out 10 times in the presence of added complement. […] Serum titers of less than 16 or greater than 128 are considered significant and indicate possible immunosuppressant and immunostimulant activity, respectively.
For immunostimulant activity, test substance or vehicle was administered i.p. to groups of mice for 3 consecutive days, and sensitized to SRBCs 2 hours after the third (last) injection. For immunosuppressant activity, test substance or vehicle was administered i.p. to groups of mice for 3 consecutive days beginning 2 hours after sensitization to SRBCs.

alpha-chymotrypsin = assay: enzyme inhibition, alpha-chymotrypsin; assay type: biochemical
Procedure: as §1, §3

beta-galactosidase = assay: enzyme inhibition, beta-galactosidase; assay type: biochemical
Procedure: as §1, §2, §3

alpha-glucosidase = assay: enzyme inhibition, alpha-glucosidase; assay type: biochemical
Procedure: as §1, §3

Staphylococcus aureus = assay: minimum inhibitory concentration, Staphylococcus aureus; assay type: cell-based; conditions: in tested medium
Description: The Minimum inhibitory concentration (MIC) of Rhamnolipid II for Candida albicans, Escherichia coli, Staphylococcus aureus and Pseudomonas aeruginosa was >0.5% in tested medium.

CHO cells = assay type: cell-based
Procedure: After 16h incubation of CHO cells with rhamnolipid, the number of micronuclei inside certain binuclear cells increased up to 4.

patients = conditions: human, in vivo
Description: Blood samples for lab tests were taken from all twelve patients on the first and last day of treatment.

herpes simplex virus = assay: effect on viruses, herpes simplex; assay type: cell-based; conditions: concentrations ≤100 ug/ml
Procedure: as §4

Lichen ruber planus = assay: clinical treatment of lichen ruber planus; assay type: in vivo, human; conditions: one patient
Procedure: as §5

[4] = test system: oxazolone-induced delayed type hypersensitivity; assay: immunosuppression (cellular): oxazolone-induced delayed type hypersensitivity; assay type: in vivo, mouse (ICR, female); conditions: for Swelling (R -L) / ear thickness, Left Ear (No Oxa.) / ear thickness, Right Ear (24 hrs Oxa.): X +/- SEM
Procedure: The shaved abdominal surface of groups of 5 mice were sensitized by application of 0.1 ml of 5% oxazolone. The test substance was administered i.p after 1 hour and then daily for 5 consecutive doses. After an additional 4 days, the animals were challenged by application of 25 ul of 5% oxazolone to the right ear. Twenty-four hours later, ear thickness was measured with a Dyer Model micrometer gauge.
A 50 percent or greater decrease in drug-treated versus control animals is considered significant immunosuppressant activity.

For CCCCCCCC(CC(=O)O)OC(=O)CC(CCCCCCC)O[C@@H]1O[C@@H](C)[C@H](O)[C@@H](O)[C@H]1O[C@@H]1O[C@@H](C)[C@H](O)[C@@H](O)[C@H]1O (stereo partly drawn) [Rhamnolipid (II), (alpha-L-rhamnopyranosyl-(1,2)alpha-L-rhamnopyranosyl)-3-hydroxydecanoyl-3-hydroxydecanoic acid], which “concentration at which the enzyme was inhibited” value (acetylcholinesterase) is on record?
The value was 1 mg/mL.

What about the Emax (HIV I, strain IIIB) of the same molecule?
The Emax was 9%.

What about the effect on enzyme (elastase) of the same molecule?
The effect on enzyme was “no effect”.

And the A431 cell growth [1]?
The A431 cell growth was “suppressed A431 cell growth”.

And the cure [2]?
The cure was “completely cured”.

What about the pathohistological changes (mice C57B1/6) of the same molecule?
The pathohistological changes was “none of the regressive-progressive or inflammatory type of changes were detected”.

What about the “SERUM TITER (Reciprocal Serum Dilution)” value ([3]; IP 0.1 × 3 mg/kg) of the same molecule?
The value was 32.

And the “SERUM TITER (Reciprocal Serum Dilution)” value ([3]; IP 1 × 3 mg/kg)?
Its value is 32.

And the “SERUM TITER (Reciprocal Serum Dilution)” value ([3]; IP 10 × 3 mg/kg)?
Its value is 128.

What about the “SERUM TITER (Reciprocal Serum Dilution)” value ([3]; IP 100 × 3 mg/kg) of the same molecule?
Its value is 16.

And the “died on Day 3” value ([3]; IP 100 × 3 mg/kg)?
Its value is 2/6.

And the effect on enzyme (alpha-chymotrypsin)?
Its effect on enzyme is “no effect”.

What about the “concentration at which the enzyme was inhibited” value (beta-galactosidase) of the same molecule?
Its value is 100 µg/mL.

And the effect on enzyme (alpha-glucosidase)?
Its effect on enzyme is “no effect”.

And the “Minimum inhibitory concentration (MIC)” value (Staphylococcus aureus)?
The value was over 0.5%.

What about the micronuclei numbers (CHO cells) of the same molecule?
The micronuclei numbers was “increased compared to the parallel control specimens”.

What about the “number of micronuclei inside certain binuclear cells” value (CHO cells) of the same molecule?
The value was “up to 4”.

What about the “lab tests of blood samples” value (patients) of the same molecule?
Its value is “no altered results of the tests were observed”.

What about the antiviral activity (herpes simplex virus) of the same molecule?
Its antiviral activity is “no activity”.

What about the cure (Lichen ruber planus) of the same molecule?
The cure was “completely cured”.

What about the “Swelling Inh. %” value ([4]; IP 0.1 × 5 mg/kg) of the same molecule?
Its value is 16%.

What about the “Swelling (R -L)” value ([4]; IP 0.1 × 5 mg/kg) of the same molecule?
Its value is 19.6 +/- 2.9 × 0.01 mm.

What about the “ear thickness, Left Ear (No Oxa.)” value ([4]; IP 0.1 × 5 mg/kg) of the same molecule?
The value was 21.0 +/- 0.8 × 0.01 mm.

What about the “ear thickness, Right Ear (24 hrs Oxa.)” value ([4]; IP 0.1 × 5 mg/kg) of the same molecule?
Its value is 40.6 +/- 3.0 × 0.01 mm.

What about the “Swelling Inh. %” value ([4]; IP 1 × 5 mg/kg) of the same molecule?
The value was 22%.

What about the “Swelling (R -L)” value ([4]; IP 1 × 5 mg/kg) of the same molecule?
Its value is 20.2 +/- 1.7 × 0.01 mm.

And the “ear thickness, Left Ear (No Oxa.)” value ([4]; IP 1 × 5 mg/kg)?
Its value is 21.0 +/- 0.5 × 0.01 mm.

And the “ear thickness, Right Ear (24 hrs Oxa.)” value ([4]; IP 1 × 5 mg/kg)?
Its value is 41.2 +/- 1.8 × 0.01 mm.

What about the “Swelling Inh. %” value ([4]; IP 10 × 5 mg/kg) of the same molecule?
The value was 19%.

And the “Swelling (R -L)” value ([4]; IP 10 × 5 mg/kg)?
Its value is 20.8 +/- 1.2 × 0.01 mm.

And the “ear thickness, Left Ear (No Oxa.)” value ([4]; IP 10 × 5 mg/kg)?
The value was 20.8 +/- 0.7 × 0.01 mm.

What about the “ear thickness, Right Ear (24 hrs Oxa.)” value ([4]; IP 10 × 5 mg/kg) of the same molecule?
Its value is 41.6 +/- 1.2 × 0.01 mm.

What about the “Swelling Inh. %” value ([4]; IP 100 × 5 mg/kg) of the same molecule?
The value was 26%.

What about the “Swelling (R -L)” value ([4]; IP 100 × 5 mg/kg) of the same molecule?
Its value is 19.2 +/- 0.6 × 0.01 mm.

What about the “ear thickness, Left Ear (No Oxa.)” value ([4]; IP 100 × 5 mg/kg) of the same molecule?
The value was 19.0 +/- 0.9 × 0.01 mm.
